# Measured values: patent US20250304620A1, “ANTIMICROBIAL PEPTIDE AND APPLICATION THEREOF” (priority 2023, published 2025)
# Marks after values point to notes of the source that are not given here. Non-standard residues stand in square brackets, D forms with d. Residues, ends and D or L forms follow the SMILES beside them. dPhe(4-Br) = N[C@H](Cc1ccc(Br)cc1)C(=O)O; dPhe(4-Me) = Cc1ccc(C[C@@H](N)C(=O)O)cc1; d2Nal = N[C@H](Cc1ccc2ccccc2c1)C(=O)O; dNle = CCCC[C@@H](N)C(=O)O
# How the values were obtained:
# [1] = system: Pseudomonas aeruginosa ATCC 27853; assay: Injectable formulations on mice infected with peritonitis; assay type: in vivo, ICR mice; settings: twice a day for 3 days; for Number of mice that died on each day after infection: day 1 / Number of mice that died on each day after infection: day 2 / Number of mice that died on each day after infection: day 3 / Number of mice that died on each day after infection: day 4 / Number of mice that died on each day after infection: day 5 / Average survival times (Days): n = 10; for Average survival times (Days): observed for 14 d
# In short: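 ICR mice of both sexes (10 per group) infected intraperitoneally with 0.2 mL P. aeruginosa ATCC 27853 at 1×10^9 CFU/mL. Injectable formulations dosed by body weight via tail vein twice daily for 3 days; deaths and survival time recorded over 14 d.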
# rabbit red blood cells = assay type: cell-based; settings: red cells of rabbit, 1 h
# [2] = system: Escherichia coli ATCC 25922; assay: Oral formulations on mice with systemic bacterial infection; assay type: in vivo, ICR mice; settings: three times a day for 7 days; for Number of mice that died on each day after infection: day 4 / Number of mice that died on each day after infection: day 5 / Number of mice that died on each day after infection: day 6 / Number of mice that died on each day after infection: day 7 / Number of mice that died on each day after infection: day 8 / Average survival times (Days): n = 10; for Average survival times (Days): observed for 14 d
# In short: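 ICR mice of both sexes, 10 per group, infected i.p. with 0.2 mL E. coli ATCC 25922 at 1×10^7 CFU/mL. Compounds gavaged by body weight immediately after infection, three times daily for 7 days; deaths and survival time recorded over 14 d observation.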
compound,measurement,setting,value
CC(=O)N[C@H](CCCCN)C(=O)N[C@H](CCCCN)C(=O)N[C@H](CC(C)C)C(=O)N[C@H](CC(C)C)C(=O)N[C@H](Cc1ccc(Br)cc1)C(=O)N[C@H](CCCNC(=N)N)C(=O)N[C@H](CC(C)C)C(=O)N[C@H](CCCCN)C(=O)N[C@H](Cc1ccc(Br)cc1)C(=O)N[C@H](CCCNC(=N)N)C(=O)N[C@H](CCCCN)C(N)=O [LV-10] (Ac-[dK][dK][dL][dL][dPhe(4-Br)][dR][dL][dK][dPhe(4-Br)][dR][dK]-NH2),Number of mice that died on each day after infection: day 1,[1]; 1 mg/kg via tail vein,0 Mouse
same,Number of mice that died on each day after infection: day 2,[1]; 1 mg/kg via tail vein,1 Mouse
same,Number of mice that died on each day after infection: day 3,[1]; 1 mg/kg via tail vein,1 Mouse
same,Number of mice that died on each day after infection: day 4,[1]; 1 mg/kg via tail vein,2 Mouse
same,Number of mice that died on each day after infection: day 5,[1]; 1 mg/kg via tail vein,0 Mouse
same,Average survival times (Days),[1]; 1 mg/kg via tail vein,9.7*** Days
same,"MHC (minimum hemolytic concentration, lowest concentration causing 10% hemolysis)",rabbit red blood cells,>1000 µg/mL
same,Number of mice that died on each day after infection: day 4,[2]; 1 mg/kg gavage,0 Mouse
same,Number of mice that died on each day after infection: day 5,[2]; 1 mg/kg gavage,2 Mouse
same,Number of mice that died on each day after infection: day 6,[2]; 1 mg/kg gavage,2 Mouse
same,Number of mice that died on each day after infection: day 7,[2]; 1 mg/kg gavage,0 Mouse
same,Number of mice that died on each day after infection: day 8,[2]; 1 mg/kg gavage,1 Mouse
same,Average survival times (Days),[2]; 1 mg/kg gavage,10.0*** Days
CC(=O)N[C@H](CCCNC(=N)N)C(=O)N[C@H](CCCCN)C(=O)N[C@H](CC(C)C)C(=O)N[C@H](CC(C)C)C(=O)N[C@H](Cc1ccc(C)cc1)C(=O)N[C@H](CCCCN)C(=O)N[C@H](CC(C)C)C(=O)N[C@H](CCCCN)C(=O)N[C@H](Cc1ccc(C)cc1)C(=O)N[C@H](CCCCN)C(=O)N[C@H](CCCNC(=N)N)C(N)=O [LV-11] (Ac-[dR][dK][dL][dL][dPhe(4-Me)][dK][dL][dK][dPhe(4-Me)][dK][dR]-NH2),Number of mice that died on each day after infection: day 1,[1]; 1 mg/kg via tail vein,0 Mouse
same,Number of mice that died on each day after infection: day 2,[1]; 1 mg/kg via tail vein,1 Mouse
same,Number of mice that died on each day after infection: day 3,[1]; 1 mg/kg via tail vein,1 Mouse
same,Number of mice that died on each day after infection: day 4,[1]; 1 mg/kg via tail vein,0 Mouse
same,Number of mice that died on each day after infection: day 5,[1]; 1 mg/kg via tail vein,2 Mouse
same,Average survival times (Days),[1]; 1 mg/kg via tail vein,9.9**** Days
same,"MHC (minimum hemolytic concentration, lowest concentration causing 10% hemolysis)",rabbit red blood cells,>1000 µg/mL
same,Number of mice that died on each day after infection: day 4,[2]; 1 mg/kg gavage,1 Mouse
same,Number of mice that died on each day after infection: day 5,[2]; 1 mg/kg gavage,1 Mouse
same,Number of mice that died on each day after infection: day 6,[2]; 1 mg/kg gavage,1 Mouse
same,Number of mice that died on each day after infection: day 7,[2]; 1 mg/kg gavage,1 Mouse
same,Number of mice that died on each day after infection: day 8,[2]; 1 mg/kg gavage,2 Mouse
same,Average survival times (Days),[2]; 1 mg/kg gavage,9.4** Days
CCCC[C@@H](NC(=O)[C@@H](CCCCN)NC(=O)[C@@H](CCCNC(=N)N)NC(C)=O)C(=O)N[C@H](CCCC)C(=O)N[C@H](Cc1ccc2ccccc2c1)C(=O)N[C@H](CCCNC(=N)N)C(=O)N[C@H](CCCC)C(=O)N[C@H](CCCCN)C(=O)N[C@H](Cc1ccc2ccccc2c1)C(=O)N[C@H](CCCNC(=N)N)C(=O)N[C@H](CCCCN)C(N)=O [LV-12] (Ac-[dR][dK][dNle][dNle][d2Nal][dR][dNle][dK][d2Nal][dR][dK]-NH2),Number of mice that died on each day after infection: day 1,[1]; 0.2 mg/kg via tail vein,2 Mouse
same,Number of mice that died on each day after infection: day 2,[1]; 0.2 mg/kg via tail vein,1 Mouse
same,Number of mice that died on each day after infection: day 3,[1]; 0.2 mg/kg via tail vein,0 Mouse
same,Number of mice that died on each day after infection: day 4,[1]; 0.2 mg/kg via tail vein,2 Mouse
same,Number of mice that died on each day after infection: day 5,[1]; 0.2 mg/kg via tail vein,1 Mouse
same,Average survival times (Days),[1]; 0.2 mg/kg via tail vein,7.3** Days
same,Number of mice that died on each day after infection: day 1,[1]; 1 mg/kg via tail vein,0 Mouse
same,Number of mice that died on each day after infection: day 2,[1]; 1 mg/kg via tail vein,0 Mouse
same,Number of mice that died on each day after infection: day 3,[1]; 1 mg/kg via tail vein,2 Mouse
same,Number of mice that died on each day after infection: day 4,[1]; 1 mg/kg via tail vein,0 Mouse
same,Number of mice that died on each day after infection: day 5,[1]; 1 mg/kg via tail vein,1 Mouse
same,Average survival times (Days),[1]; 1 mg/kg via tail vein,10.9**** Days
same,Number of mice that died on each day after infection: day 1,[1]; 5 mg/kg via tail vein,0 Mouse
same,Number of mice that died on each day after infection: day 2,[1]; 5 mg/kg via tail vein,1 Mouse
same,Number of mice that died on each day after infection: day 3,[1]; 5 mg/kg via tail vein,2 Mouse
same,Number of mice that died on each day after infection: day 4,[1]; 5 mg/kg via tail vein,0 Mouse
same,Number of mice that died on each day after infection: day 5,[1]; 5 mg/kg via tail vein,1 Mouse
same,Average survival times (Days),[1]; 5 mg/kg via tail vein,9.7*** Days
same,survival time of mice infected with Pseudomonas aeruginosa,"[1]; tail vein, observed 14 d",superior to those of the Levofloxacin group
same,"MHC (minimum hemolytic concentration, lowest concentration causing 10% hemolysis)",rabbit red blood cells,>1000 µg/mL
same,Number of mice that died on each day after infection: day 4,[2]; 0.2 mg/kg gavage,1 Mouse
same,Number of mice that died on each day after infection: day 5,[2]; 0.2 mg/kg gavage,2 Mouse
same,Number of mice that died on each day after infection: day 6,[2]; 0.2 mg/kg gavage,2 Mouse
same,Number of mice that died on each day after infection: day 7,[2]; 0.2 mg/kg gavage,1 Mouse
same,Number of mice that died on each day after infection: day 8,[2]; 0.2 mg/kg gavage,0 Mouse
same,Average survival times (Days),[2]; 0.2 mg/kg gavage,8.9** Days
same,Number of mice that died on each day after infection: day 4,[2]; 1 mg/kg gavage,0 Mouse
same,Number of mice that died on each day after infection: day 5,[2]; 1 mg/kg gavage,1 Mouse
same,Number of mice that died on each day after infection: day 6,[2]; 1 mg/kg gavage,0 Mouse
same,Number of mice that died on each day after infection: day 7,[2]; 1 mg/kg gavage,2 Mouse
same,Number of mice that died on each day after infection: day 8,[2]; 1 mg/kg gavage,1 Mouse
same,Average survival times (Days),[2]; 1 mg/kg gavage,11.1**** Days
same,Number of mice that died on each day after infection: day 4,[2]; 5 mg/kg gavage,0 Mouse
same,Number of mice that died on each day after infection: day 5,[2]; 5 mg/kg gavage,2 Mouse
same,Number of mice that died on each day after infection: day 6,[2]; 5 mg/kg gavage,1 Mouse
same,Number of mice that died on each day after infection: day 7,[2]; 5 mg/kg gavage,1 Mouse
same,Number of mice that died on each day after infection: day 8,[2]; 5 mg/kg gavage,0 Mouse
same,Average survival times (Days),[2]; 5 mg/kg gavage,10.7*** Days
same,survival time of mice infected with Escherichia coli,"[2]; gavage, observed 14 d",superior to those of the Levofloxacin group
